The source of these data is patent US20190316211A1, “ONCOGENIC ALTERNATIVE SPLICING SWITCH OF PACE4 IN CANCER” (SOCIETE DE COMMERCIALISATION DES PRODUITS DE LA RECHERCHE …, priority 2016, published 2019).

One data set relates to PACE4 secretion. The data set can be described thus: PACE4 secretion assay with post-translational modification inhibitors. Format: cell-based. The following applies: 24 h secretion in presence of agent. The text has this: Immunoprecipitations on transiently transfected HEK293-FT cells were subjected to Sequential Window Acquisition of all Theoretical Mass Spectra (SWATH-MS)-based analysis (FIGS. 7F and G). Proteins identified in each pull-down were used to compare enrichment between the two different isoforms. Both isoforms pulled-down endoplasmic reticulum (ER) proteins with similar enrichment. The two isoforms had clearly different patterns when it came to endosomal compartments-associated proteins such as Arf6, Rab13 or Vps16 with PACE4-altCT pull-down displaying the higher enriched levels for these proteins. […] Considering the slight substitution caused by the splicing in the protein primary structure (FIG. 7A), PTM prediction tools were used to evaluate whether distinctive PTM motifs could be found in the alternative C-terminus compared to the FL one. The predicted PTM sites that scored the highest were S-palmitoylation, non-consensual S-farnesylation and S-geranylgeranylation on the Cys cluster added at the C-terminal extremity of the protein ([…]; see FIG. 8A).
For PACE4 secretion assays, cells were plated at equal densities in 6-well plates for 24 h in complete medium. 24 h later, the medium was replaced by the minimal volume required of fresh culture medium (600 μL without FBS) and the cells were either allowed to secrete for the indicated time (for secretion kinetics) or (for inhibitor treatments) allowed to secrete for an additional 24 h in the presence of the indicated concentrations of agents (heparin (Sandoz, Niirnberg, Germany), 2-bromopalmitate (Sigma Aldrich), FTI-277 (Sigma Aldrich), GGTI-2133 (Santa Cruz Biotechnology Inc., Santa Cruz, Calif., USA)

For data set [1], the target named is Multi-Leucine (ML) peptide.

Consider `CCCCCCCCCCCCCCC(Br)C(=O)O` (centres unmarked) [2-BP, 2-bromopalmitate], for which, in the data set on PACE4 secretion, the “variation in secretion levels” value is listed as “without any significant variation”.
On to `COC(=O)[C@H](CCSC)NC(=O)c1ccc(NC[C@@H](N)CS)cc1-c1ccccc1` [FTI-277], for which the “variation in secretion levels” value with PACE4 secretion is on record as “without any significant variation”.
For the molecule `CC(C)C[C@H](NC(=O)c1ccc(NCc2cnc[nH]2)cc1-c1cccc2ccccc12)C(=O)O` [GGTI-2133], the “variation in secretion levels” value with PACE4 secretion is given as “without any significant variation”.

B1: V5-tagged PACE4-altCT (protein)
chain: QVRSDPQALYFNDPIWSNMWYLHCGDKNSRCRSEMNVQAAWKRGYTGKNVVVTILDDGIERNHPDLAPNYDSYASYDVNGNDYDPSPRYDASNENKHGTRCAGEVAASANNSYCIVGIAYNAKIGGIRMLDGDVTDVVEAKSLGIRPNYIDIYSASWGPDDDGKTVDGPGRLAKQAFEYGIKKGRQGLGSIFVWASGNGGREGDYCSCDGYTNSIYTISVSSATENGYKPWYLEECASTLATTYSSGAFYERKIVTTDLRQRCTDGHTGTSVSAPMVAGIIALALEANSQLTWRDVQHLLVKTSRPAHLKASDWKVNGAGHKVSHFYGFGLVDAEALVVEAKKWTAVPSQHMCVAASDKRPRSIPLVQVLRTTALTSACAEHSDQRVVYLEHVVVRTSISHPRRGDLQIYLVSPSGTKSQLLAKRLLDLSNEGFTNWEFMTVHCWGEKAEGQWTLEIQDLPSQVRNPEKQGKLKEWSLILYGTAEHPYHTFSAHQSRSRMLELSAPELEPPKAALSPSQVEVPEDEEDYTAQSTPGSANILQTSVCHPECGDKGCDGPNADQCLNCVHFSLGSVKTSRKCVSVCPLGYFGDTAARRCRRCHKGCETCSSRAATQCLSCRRGFYHHQEMNTCVTLCPAGFYADESQKNCLKCHPSCKKCVDEPEKCTVCKEGFSLARGSCIPDCEPGTYFDSELIRCGECHHTCGTCVGPGREECIHCAKNFHFHDWKCVPACGEGFYPEEMPGLPHKVCRRCDENCLSCAGSSRNCSRCKTGFTQLGTSCITNHTCSNGDIWQRLETFWVVTTGRMYSHPVGGGQECC
With B1, in data set [1], the “enzymatic activity (cleavage of the fluorogenic substrate Pyr-Arg-Thr-Lys-Arg-methylcoumaryl-7-amide)” value was “both isoforms were still equally inhibited by the Multi-Leucine (ML) peptide”.

B2: V5-tagged PACE4-FL (protein)
chain: QVRSDPQALYFNDPIWSNMWYLHCGDKNSRCRSEMNVQAAWKRGYTGKNVVVTILDDGIERNHPDLAPNYDSYASYDVNGNDYDPSPRYDASNENKHGTRCAGEVAASANNSYCIVGIAYNAKIGGIRMLDGDVTDVVEAKSLGIRPNYIDIYSASWGPDDDGKTVDGPGRLAKQAFEYGIKKGRQGLGSIFVWASGNGGREGDYCSCDGYTNSIYTISVSSATENGYKPWYLEECASTLATTYSSGAFYERKIVTTDLRQRCTDGHTGTSVSAPMVAGIIALALEANSQLTWRDVQHLLVKTSRPAHLKASDWKVNGAGHKVSHFYGFGLVDAEALVVEAKKWTAVPSQHMCVAASDKRPRSIPLVQVLRTTALTSACAEHSDQRVVYLEHVVVRTSISHPRRGDLQIYLVSPSGTKSQLLAKRLLDLSNEGFTNWEFMTVHCWGEKAEGQWTLEIQDLPSQVRNPEKQGKLKEWSLILYGTAEHPYHTFSAHQSRSRMLELSAPELEPPKAALSPSQVEVPEDEEDYTAQSTPGSANILQTSVCHPECGDKGCDGPNADQCLNCVHFSLGSVKTSRKCVSVCPLGYFGDTAARRCRRCHKGCETCSSRAATQCLSCRRGFYHHQEMNTCVTLCPAGFYADESQKNCLKCHPSCKKCVDEPEKCTVCKEGFSLARGSCIPDCEPGTYFDSELIRCGECHHTCGTCVGPGREECIHCAKNFHFHDWKCVPACGEGFYPEEMPGLPHKVCRRCDENCLSCAGSSRNCSRCKTGFTQLGTSCITNHTCSNADETFCEMVKSNRLCERKLFIQFCCRTCLLAG
As for B2, the “enzymatic activity (cleavage of the fluorogenic substrate Pyr-Arg-Thr-Lys-Arg-methylcoumaryl-7-amide)” value in data set [1] is “both isoforms were still equally inhibited by the Multi-Leucine (ML) peptide”.
